Experimental data published in patent US5130339A, “Phenylethanolaminomethyltetralins and pharmaceutical use” (Sanofi, priority 1989, dated 1992).

Assays:
[1] = test system: isolated proximal colon rat strips; assay: Reduction of spontaneous contractile activity of isolated proximal colon rat strips (in vitro); type: cell-based; details: Krebs-Ringer, 37° C., read-out: EC50, on colon (concentration effective to reduce by 50% the contractile activity observed in controls)
Text: In particular, their effects in reducing colon spontaneous motility have been observed in in vitro normalized pharmacological tests and has been confirmed in the animal in vivo.
In the in vitro tests, the capability of different concentrations of the phenylethanolaminomethyltetralins of the present invention to reduce, under particular normalised conditions, the spontaneous contractile activity of isolated proximal colon rat strips has been evaluated.
Not fasted male rats weighing 250-300 g are sacrificed. The proximal part of the colon, approximately a 2 to 3 cm segment, is removed and suspended in a 20-ml organ bath containing oxygenated (5% CO2, 95% O2) Krebs-Ringer solution with the following mM composition: NaCl 118.4; KCl 4.7; CaCl2 2.45; MgSO4 1.16; NaH2 PO4 3.7; glucose 5.6; NaHCO3 30.9, kept at a constant temperature of 37° C. The colon strips submitted to a 1 g traction spontaneously contract. The test compounds are added thereto after stabilisation of the preparation (2h).
The EC50, i.e. the concentration which is effective to reduce by 50% the contractile activity observed in controls, is determined.

isolated rat uterus = assay: Effect on spontaneous uterus motility, same general method on isolated rat uterus (in vitro); type: cell-based; details: for selectivity ratio (EC50 uterus / EC50 colon): colon versus uterus; for EC50: isolated rat uterus, spontaneous motility

| SMILES | EC50 [1] | selectivity ratio (EC50 uterus / EC50 colon) (isolated rat uterus) | EC50 (isolated rat uterus) |
| --- | --- | --- | --- |
| COc1ccc2c(c1)CC(CNCC(O)c1cccc(Cl)c1)CC2.Cl (stereo not drawn) [Example 4, N-[(7-methoxy-1,2,3,4-tetrahydronaphth-2-yl)methyl]-2-hydroxy-2-(3-chlorophenyl)ethanamine hydrochloride] | 43 nM | 57 | 2450 nM |
| COc1ccc2c(c1)CC(NCC(O)c1cccc(Cl)c1)CC2.Cl (stereo not drawn) [Example 7 of EP-B-211,721, N-(7-methoxy-1,2,3,4-tetrahydronaphth-2-yl)-2-hydroxy-2-(3-chlorophenyl)ethanamine hydrochloride] | 194 nM | lower than 2 | 350 nM |
| Oc1ccc2c(c1)CC(NCC(O)c1cccc(Cl)c1)CC2 (stereo not drawn) [Example 8 of EP-B-211,721] | 110 nM | 1 | 110 nM |
| O=C(O)C(=O)O.Oc1ccc2c(c1)CC(CNCC(O)c1cccc(Cl)c1)CC2 (stereo not drawn) [Example 10, N-[(7-hydroxy-1,2,3,4-tetrahydronaphth-2-yl)methyl]-2-hydroxy-2-(3-chlorophenyl)ethanamine oxalate] | 7 nM | about 7 | 50 nM |
